The test deals with recombinant human Tyro3 (Homo sapiens (Human), UniProt Q06418). The test is described as follows: Tyro3 Enzymatic Assay. The class given is biochemical. To be noted: radiometric [32P]-ATP kinase assay, Poly(Glu, Tyr) substrate, 2 nM enzyme. On the procedure: Poly(Glu, Tyr) sodium salt (Glu:Tyr (4:1), quality level 200, molecular weight 5,000-20,000, obtained from Sigma Aldrich, catalogue #P7244, assay concentration 0.20 mg/mL) and recombinant human Tyro3 (obtained from ThermoFisher Scientific, catalogue #PV3828, assay concentration 2 nM) were mixed in assay buffer (20 mM Hepes pH 7.5, 10 mM MgCl2, […] EGTA, 0.02% Brij35, 0.02 mg/ml BSA, 0.1 mM Na3VO4, 2 mM DTT, 1% DMSO, with added MnCl2 at a final concentration of 2 mM). Compounds of interest (in DMSO, serial 3-fold dilution from 10 μM to 0.5 nM) or control (1% DMSO) were dispensed into the kinase reaction mixture by Acoustic technology (Echo550; nanoliter range). After incubation at room temperature for 20 minutes, the kinase reaction was initiated by addition of [^32P]-ATP (Specific activity 10 μCi/μL) and the mixture was incubated at room temperature for 2 hours. The reaction was then stopped by spotting the reaction mixture on strips of phosphocellulose P81 paper. Following washing, the radioactivity of the P81 paper was measured and kinase activity data were expressed as the percent remaining kinase activity in test samples compared to vehicle (dimethyl sulfoxide) reactions. IC50 values and curve fits were obtained using Prism (GraphPad Software).
Sequence of recombinant human Tyro3 (Q06418 41-890): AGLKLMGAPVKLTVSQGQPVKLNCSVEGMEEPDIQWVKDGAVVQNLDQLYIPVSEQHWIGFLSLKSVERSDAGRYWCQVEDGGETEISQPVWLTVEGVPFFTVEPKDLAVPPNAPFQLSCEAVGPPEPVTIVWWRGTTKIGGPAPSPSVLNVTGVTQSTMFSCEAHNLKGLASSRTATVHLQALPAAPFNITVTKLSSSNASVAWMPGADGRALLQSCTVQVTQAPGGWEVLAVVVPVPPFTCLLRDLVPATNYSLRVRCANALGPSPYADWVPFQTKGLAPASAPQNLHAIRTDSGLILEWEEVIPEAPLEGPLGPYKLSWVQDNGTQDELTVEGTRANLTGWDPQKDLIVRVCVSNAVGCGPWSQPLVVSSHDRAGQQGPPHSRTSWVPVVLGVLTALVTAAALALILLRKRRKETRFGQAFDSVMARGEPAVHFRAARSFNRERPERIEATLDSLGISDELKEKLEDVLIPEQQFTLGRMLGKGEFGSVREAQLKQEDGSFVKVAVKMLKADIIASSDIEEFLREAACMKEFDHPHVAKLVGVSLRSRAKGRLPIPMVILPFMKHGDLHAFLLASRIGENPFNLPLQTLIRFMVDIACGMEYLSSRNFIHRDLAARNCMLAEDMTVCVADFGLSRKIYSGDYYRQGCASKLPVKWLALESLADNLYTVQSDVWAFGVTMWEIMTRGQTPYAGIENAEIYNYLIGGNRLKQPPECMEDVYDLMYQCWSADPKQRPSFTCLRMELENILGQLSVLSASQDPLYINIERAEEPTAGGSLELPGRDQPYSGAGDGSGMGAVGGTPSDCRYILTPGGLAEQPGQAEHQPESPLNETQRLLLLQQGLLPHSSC
As a reminder, the IC50 is the midpoint of a concentration-inhibition curve. For the compound `COc1ccc(-c2c[nH]c3ncc(-c4cn(C5CCN(C)CC5)nc4C)cc23)cn1` [Compound 8, 3-(6-methoxypyridin-3-yl)-5-(3-methyl-1-(1-methylpiperidin-4-yl)-1H-pyrazol-4-yl)-1H-pyrrolo[2,3-b]pyridine], the 50% inhibitory concentration (IC50) was 0.151 to 0.501 µM.
The result for `CCc1[nH]c2ncc(-c3cn(C4CCN(C)CC4)nc3Cl)cc2c1-c1ccc(OC)nc1` [Compound 23, 5-(3-chloro-1-(1-methylpiperidin-4-yl)-1H-pyrazol-4-yl)-2-ethyl-3-(6-methoxypyridin-3-yl)-1H-pyrrolo[2,3-b]pyridine] reads 0.051 to 0.15 µM; that for `CCc1[nH]c2ncc(-c3cn(C4CCN(CC)CC4)nc3F)cc2c1-c1ccc(OC)nc1` [Compound 22, 2-ethyl-5-(1-(1-ethylpiperidin-4-yl)-3-fluoro-1H-pyrazol-4-yl)-3-(6-methoxypyridin-3-yl)-1H-pyrrolo[2,3-b]pyridine], 0.051 to 0.15 µM.
The figure for `COc1nn(C2CN(C)C2)cc1-c1cnc2[nH]cc(-c3cccc(F)c3)c2c1` [Compound 13, 3-(3-fluorophenyl)-5-(3-methoxy-1-(1-methylazetidin-3-yl)-1H-pyrazol-4-yl)-1H-pyrrolo[2,3-b]pyridine] is less than 0.05 µM.
The figure for `CCOc1nn(C2CCN(C)CC2)cc1-c1cnc2[nH]cc(-c3ccc(OC)nc3)c2c1` [Compound 3, 5-(3-ethoxy-1-(1-methylpiperidin-4-yl)-1H-pyrazol-4-yl)-3-(6-methoxypyridin-3-yl)-1H-pyrrolo[2,3-b]pyridine] is less than 0.05 µM.
`CN1CCC(n2cc(-c3cnc4[nH]cc(-c5cccc(F)c5)c4c3)c(Cl)n2)CC1` [Compound 11, 5-(3-chloro-1-(1-methylpiperidin-4-yl)-1H-pyrazol-4-yl)-3-(3-fluorophenyl)-1H-pyrrolo[2,3-b]pyridine]: the half-inhibitory concentration (IC50) was less than 0.05 µM.
The figure for `COc1ccc(-c2c[nH]c3ncc(-c4cc(CN5CCCC(O)C5)n(C)n4)cc23)cn1` (stereo not drawn) [Compound 35, 1-((3-(3-(6-methoxypyridin-3-yl)-1H-pyrrolo[2,3-b]pyridin-5-yl)-1-methyl-1H-pyrazol-5-yl)methyl)piperidin-3-ol] is greater than 0.5 µM.
The result for `COc1ccc(-c2c[nH]c3ncc(-c4cnn(C5CCN(C)CC5)c4C)cc23)cn1` [Compound 9, 3-(6-methoxypyridin-3-yl)-5-(5-methyl-1-(1-methylpiperidin-4-yl)-1H-pyrazol-4-yl)-1H-pyrrolo[2,3-b]pyridine] reads greater than 0.5 µM; that for `COc1ccc(-c2c[nH]c3ncc(-c4cn(C5CCN(C)CC5)nc4Cl)cc23)cn1` [Compound 5, 5-(3-chloro-1-(1-methylpiperidin-4-yl)-1H-pyrazol-4-yl)-3-(6-methoxypyridin-3-yl)-1H-pyrrolo[2,3-b]pyridine], less than 0.05 µM.
As for `CCc1[nH]c2ncc(-c3cn(C4CCN(C)CC4)nc3OC)cc2c1-c1cccc(F)c1` [Compound 24, 2-ethyl-3-(3-fluorophenyl)-5-(3-methoxy-1-(1-methylpiperidin-4-yl)-1H-pyrazol-4-yl)-1/-pyrrolo[2,3-b]pyridine], the concentration for half-maximal inhibition (IC50) was in the range of 0.051 to 0.15 µM.
For `COc1ccc(-c2c[nH]c3ncc(-c4cnn(C5CCC(O)CC5)c4)cc23)cn1` (stereo not drawn) [Compound 32, 4-(4-(3-(6-methoxypyridin-3-yl)-1H-pyrrolo[2,3-b]pyridin-5-yl)-1H-pyrazol-1-yl)cyclohexan-1-ol], the half-maximal inhibitory concentration (IC50) was 0.151 to 0.501 µM.
The result for `COc1nn(C2CCN(C)C2)cc1-c1cnc2[nH]cc(-c3cccc(F)c3)c2c1` (stereo not drawn) [Compound 12, 3-(3-fluorophenyl)-5-(3-methoxy-1-(1-methylpyrrolidin-3-yl)-1H-pyrazol-4-yl)-1H-pyrrolo[2,3-b]pyridine] reads less than 0.05 µM; that for `CCc1[nH]c2ncc(-c3cn(C4CCN(C)CC4)nc3OC)cc2c1-c1cccc(C(F)F)c1` [Compound 27, 3-(3-(difluoromethyl)phenyl)-2-ethyl-5-(3-methoxy-1-(1-methylpiperidin-4-yl)-1H-pyrazol-4-yl)-1H-pyrrolo[2,3-b]pyridine], 0.051 to 0.15 µM; that for `COc1nn(C2CCCN(C)C2)cc1-c1cnc2[nH]cc(-c3cccc(F)c3)c2c1` (stereo not drawn) [Compound 15, 3-(3-fluorophenyl)-5-(3-methoxy-1-(1-methylpiperidin-3-yl)-1H-pyrazol-4-yl)-1H-pyrrolo[2,3-b]pyridine], 0.151 to 0.501 µM.
The result for `CN1CCC(n2cc(-c3cnc4[nH]cc(-c5cccc(C(F)F)c5)c4c3)c(F)n2)CC1` [Compound 17, 3-(3-(difluoromethyl)phenyl)-5-(3-fluoro-1-(1-methylpiperidin-4-yl)-1H-pyrazol-4-yl)-1H-pyrrolo[2,3-b]pyridine] reads 0.051 to 0.15 µM.
Take `CCc1[nH]c2ncc(-c3cn(C4CCN(C)CC4)nc3F)cc2c1-c1cccc(F)c1` [Compound 25, 2-ethyl-5-(3-fluoro-1-(1-methylpiperidin-4-yl)-1H-pyrazol-4-yl)-3-(3-fluorophenyl)-1H-pyrrolo[2,3-b]pyridine]: the half-maximal inhibitory concentration (IC50) was in the range of 0.051 to 0.15 µM.
The figure for `COc1nn(C2CCN(C)CC2)cc1-c1cnc2[nH]c(Cl)c(-c3cccc(F)c3)c2c1` [Compound 28, 2-chloro-3-(3-fluorophenyl)-5-(3-methoxy-1-(1-methylpiperidin-4-yl)-1H-pyrazol-4-yl)-1H-pyrrolo[2,3-b]pyridine] is 0.051 to 0.15 µM; for `COc1nn(C2CCCN(C)CC2)cc1-c1cnc2[nH]cc(-c3cccc(F)c3)c2c1` (stereo not drawn) [Compound 14, 3-(3-fluorophenyl)-5-(3-methoxy-1-(1-methylazepan-4-yl)-1H-pyrazol-4-yl)-1H-pyrrolo[2,3-b]pyridine] it is less than 0.05 µM.
The result for `COc1nn(C2CCN(C)CC2)cc1-c1cnc2[nH]cc(-c3ccnc(C(F)F)c3)c2c1` [Compound 20, 3-(2-(difluoromethyl)pyridin-4-yl)-5-(3-methoxy-1-(1-methylpiperidin-4-yl)-1H-pyrazol-4-yl)-1H-pyrrolo[2,3-b]pyridine] reads less than 0.05 µM; that for `CN1CCC(n2cc(-c3cnc4[nH]cc(-c5cccc(C(F)F)c5)c4c3)c(Cl)n2)CC1` [Compound 18, 5-(3-chloro-1-(1-methylpiperidin-4-yl)-1H-pyrazol-4-yl)-3-(3-(difluoromethyl)phenyl)-1H-pyrrolo[2,3-b]pyridine], less than 0.05 µM.
The result for `COCCN1CCC(n2cc(-c3cnc4[nH]cc(-c5cccc(F)c5)c4c3)c(OC)n2)CC1` [Compound 29, 3-(3-fluorophenyl)-5-(3-methoxy-1-(1-(2-methoxyethyl)piperidin-4-yl)-1H-pyrazol-4-yl)-1H-pyrrolo[2,3-b]pyridine] reads 0.051 to 0.15 µM; that for `COc1ccc(-c2c[nH]c3ncc(-c4cn(C5CCN(C)CC5)nc4F)cc23)cn1` [Compound 4, 5-(3-fluoro-1-(1-methylpiperidin-4-yl)-1H-pyrazol-4-yl)-3-(6-methoxypyridin-3-yl)-1H-pyrrolo[2,3-b]pyridine], 0.051 to 0.15 µM.
For the compound `COc1nn(C2CCN(C)CC2)cc1-c1cnc2[nH]cc(-c3cccc(C(F)F)c3)c2c1` [Compound 16, 3-(3-(difluoromethyl)phenyl)-5-(3-methoxy-1-(1-methylpiperidin-4-yl)-1H-pyrazol-4-yl)-1H-pyrrolo[2,3-b]pyridine], the half-inhibitory concentration (IC50) is less than 0.05 µM.
The figure for `COc1ccc(-c2c[nH]c3ncc(-c4cn(C5CCN(C)CC5)nc4OC)cc23)cn1` [Compound 2, 5-(3-methoxy-1-(1-methylpiperidin-4-yl)-1H-pyrazol-4-yl)-3-(6-methoxypyridin-3-yl)-1H-pyrrolo[2,3-b]pyridine] is less than 0.05 µM; for `COc1ccc(-c2c[nH]c3ncc(-c4cnn(C5CCN(C)CC5)c4)cc23)cn1` [Compound 1, 3-(6-methoxypyridin-3-yl)-5-(1-(1-methylpiperidin-4-yl)-1H-pyrazol-4-yl)-1H-pyrrolo[2,3-b]pyridine] it is 0.151 to 0.501 µM; for `COc1nn(C2CCN(C(C)=O)CC2)cc1-c1cnc2[nH]cc(-c3cccc(F)c3)c2c1` [Compound 30, 1-(4-(4-(3-(3-fluorophenyl)-1H-pyrrolo[2,3-b]pyridin-5-yl)-3-methoxy-1H-pyrazol-1-yl)piperidin-1-yl)ethan-1-one] it is greater than 0.5 µM.
The result for `COc1ccc(-c2c[nH]c3ncc(-c4ccnn4C4CCN(C)CC4)cc23)cn1` [Compound 7, 3-(6-methoxypyridin-3-yl)-5-(1-(1-methylpiperidin-4-yl)-1H-pyrazol-5-yl)-1H-pyrrolo[2,3-b]pyridine] reads greater than 0.5 µM; that for `CCc1[nH]c2ncc(-c3cn(C4CCN(C)CC4)nc3Cl)cc2c1-c1cccc(F)c1` [Compound 26, 5-(3-chloro-1-(1-methylpiperidin-4-yl)-1H-pyrazol-4-yl)-2-ethyl-3-(3-fluorophenyl)-1H-pyrrolo[2,3-b]pyridine], 0.151 to 0.501 µM; that for `CCOc1nn(C2CCN(C)CC2)cc1-c1cnc2[nH]cc(-c3ccc(C(F)F)nc3)c2c1` [Compound 19, 3-(6-(difluoromethyl)pyridin-3-yl)-5-(3-ethoxy-1-(1-methylpiperidin-4-yl)-1H-pyrazol-4-yl)-1H-pyrrolo[2,3-b]pyridine], less than 0.05 µM.
The result for `COc1ccc(-c2c[nH]c3ncc(-c4cnn(CC5CCN(C)CC5)c4)cc23)cn1` [Compound 31, 3-(6-methoxypyridin-3-yl)-5-(1-((1-methylpiperidin-4-yl)methyl)-1H-pyrazol-4-yl)-1H-pyrrolo[2,3-b]pyridine] reads 0.151 to 0.501 µM.
